The results in this text go back to ChEMBL document CHEMBL1201862, “PubChem BioAssay data set” (2004).

Test systems include K562; NCI-H23; HCT-116; A549; SF-295; KM-20L2; SF-539; NCI-H226; EKVX; SNB-78; Malme-3M; SNB-75; A498; SK-OV-3; SK-MEL-2; U-251; SN12C; HOP-18; HT-29; MCF7.
Common to all, as to assay: NCI tumour cell line growth inhibition, 48 h

Molecules are shown by their SMILES.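 Values below derive from 48-hour exposures of cells grown in 96-well plates, with endpoints linearly interpolated between the two concentrations bracketing the appropriate inhibition level. At the GI50, growth is halved.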 Active and inactive are the calls of the source. No stated cut-off is given here; in the data, active = GI50 up to about 1.1 µM and inactive = higher.

Regarding `N#CC(/C(CCCC(=O)Nc1cccc([N+](=O)[O-])c1)=N\NC(=O)c1c(O)ccc2ccccc12)c1nc2ccccc2s1` (stereo not given), the GI50 with K562 is 7.89 µM (inactive); in the experiment with NCI-H23, 37.5 µM (inactive); in the experiment with HCT-116 it was 8.43 µM (inactive); in the experiment with A549, 10.8 µM (inactive); with SF-295, 28.6 µM (inactive); in the experiment with KM-20L2, 27 µM (inactive). The GI50 was 15.3 µM (inactive) in the experiment with SF-539; 21.9 µM (inactive) with NCI-H226; 35.4 µM (inactive) in the experiment with EKVX; 37.4 µM (inactive) with SNB-78; 35 µM (inactive) in the experiment with Malme-3M; 10.7 µM (inactive) in the experiment with SNB-75. The GI50 in the experiment on A498 is 35.1 µM (inactive); with SK-OV-3, 25.5 µM (inactive); with SK-MEL-2, 27.1 µM (inactive); in the experiment on U-251 it was 16.3 µM (inactive); in the experiment on SN12C, 25.6 µM (inactive); with HOP-18, 23.1 µM (inactive). Also, in the experiment on HT-29, the GI50 is 37 µM (inactive).
Take `CCCCCCCCCCCCCCCCCCN(C)CC(COC)OP(=O)([O-])OCC[N+](C)(C)C` (stereo not given): the GI50 is 9.42 µM (inactive) in the experiment on K562; 3.16 µM (inactive) with NCI-H23; 1.66 µM (inactive) in the experiment with HCT-116; 1.78 µM (inactive) in the experiment on A549; 3.97 µM (inactive) in the experiment on MCF7; 1.07 µM (active) with SF-295. Further, the GI50 in the experiment with KM-20L2 is 2 µM (inactive); in the experiment on SF-539, 3.84 µM (inactive); with NCI-H226, 4.32 µM (inactive); with EKVX, 12.5 µM (inactive); with SNB-78, 3.56 µM (inactive); in the experiment on Malme-3M, 11.7 µM (inactive). The GI50 with SNB-75 is 1.01 µM (active); in the experiment with A498, 3.77 µM (inactive); in the experiment with SK-OV-3, 11.2 µM (inactive); with SK-MEL-2, 14.4 µM (inactive); in the experiment with U-251 it was 0.891 µM (active); in the experiment with SN12C it was 3.3 µM (inactive). Further, the GI50 is 1.85 µM (inactive) with HOP-18 and 1.28 µM (inactive) with HT-29.
As to `Cn1nnc2c(C(N)=O)ncn2c1=O` [TEMOZOLOMIDE], the GI50 with K562 was 75.9 µM (inactive); with NCI-H23 it was > 100 µM (inactive); in the experiment on HCT-116, > 100 µM (inactive); in the experiment on A549 it was > 100 µM (inactive); in the experiment on MCF7, > 100 µM (inactive); with SF-295, > 100 µM (inactive). Further, the GI50 in the experiment with KM-20L2, in the experiment with SF-539, with NCI-H226, in the experiment with EKVX, in the experiment on SNB-78 and with Malme-3M was > 100 µM (inactive) throughout. Moreover, the GI50 in the experiment with SNB-75 is 71 µM (inactive); with SK-OV-3 it was 58.7 µM (inactive); with SK-MEL-2, > 100 µM (inactive); in the experiment with U-251, > 100 µM (inactive); with SN12C, > 100 µM (inactive); in the experiment on HOP-18 it was > 100 µM (inactive). In addition, the GI50 in the experiment on HT-29 was > 100 µM (inactive).
Turning to `COc1ccc(C(=O)OC2C=COC(C)C2OC(=O)c2ccc(OC)cc2)cc1` (stereo not given), the GI50 is 17 µM (inactive) in the experiment on K562; 16.4 µM (inactive) in the experiment on NCI-H23; 10.2 µM (inactive) in the experiment on HCT-116; 48.1 µM (inactive) in the experiment on A549; 33.2 µM (inactive) with SF-295; 27.6 µM (inactive) in the experiment with KM-20L2. The GI50 is 18 µM (inactive) in the experiment with SF-539; 38.8 µM (inactive) with NCI-H226; 36.9 µM (inactive) in the experiment with EKVX; 22.5 µM (inactive) with SNB-78; 18.2 µM (inactive) in the experiment with Malme-3M; 12.4 µM (inactive) in the experiment on SNB-75. Also, the GI50 is > 100 µM (inactive) in the experiment on A498; > 100 µM (inactive) in the experiment on SK-OV-3; 17.5 µM (inactive) in the experiment on SK-MEL-2; 36.8 µM (inactive) in the experiment on U-251; 23.3 µM (inactive) with SN12C; 27.2 µM (inactive) in the experiment on HOP-18. Further, the GI50 in the experiment with HT-29 was 22.2 µM (inactive).
Turning to `COc1cc2c(cc1O)C(C)Cc1cc3c(cc1N(C)CC2)OCO3` (stereo not given), the GI50 in the experiment with K562 was 2.8 µM (inactive); in the experiment on NCI-H23, 4.07 µM (inactive); in the experiment with HCT-116 it was 4.04 µM (inactive); in the experiment with A549, 3.94 µM (inactive); in the experiment with SF-295 it was 2.78 µM (inactive); in the experiment with KM-20L2, 12.4 µM (inactive). Moreover, the GI50 was 2.72 µM (inactive) in the experiment on SF-539; 6.65 µM (inactive) in the experiment with NCI-H226; 4.26 µM (inactive) in the experiment on EKVX; 5.12 µM (inactive) in the experiment on SNB-78; 3.12 µM (inactive) with Malme-3M; 2.45 µM (inactive) in the experiment with SNB-75. Further, the GI50 was 13.2 µM (inactive) in the experiment with A498; 3.32 µM (inactive) with SK-OV-3; 4.44 µM (inactive) in the experiment on SK-MEL-2; 4.01 µM (inactive) with U-251; 5.94 µM (inactive) in the experiment on SN12C; 10.5 µM (inactive) with HOP-18. For the same molecule, in the experiment on HT-29, the GI50 is 12.9 µM (inactive).
With `CC1=NN2C(c3ccc(C)cc3)=CSC2=NC(C)(C)C1`, the GI50 with K562 is 61.5 µM (inactive); with NCI-H23, > 100 µM (inactive); with HCT-116 it was > 100 µM (inactive); in the experiment with A549, > 100 µM (inactive); in the experiment on SF-295 it was > 100 µM (inactive); with KM-20L2, > 100 µM (inactive). The GI50 with SF-539, in the experiment with NCI-H226, in the experiment with EKVX, in the experiment on SNB-78, in the experiment on Malme-3M and with SNB-75 was > 100 µM (inactive) in each case. Further, the GI50 with A498, in the experiment with SK-OV-3, in the experiment with SK-MEL-2, with U-251, in the experiment with SN12C and with HOP-18 was > 100 µM (inactive) throughout. The GI50 in the experiment on HT-29 was > 100 µM (inactive).
`CCCCCCCCCCCCC/C=C1\C[C@H](O)COC1=O`: the GI50 was 15.9 µM (inactive) in the experiment on K562; 20.4 µM (inactive) in the experiment on NCI-H23; 15.9 µM (inactive) with HCT-116; 19.5 µM (inactive) in the experiment with A549; 18.1 µM (inactive) in the experiment on SF-295; 16.9 µM (inactive) in the experiment on KM-20L2. The GI50 in the experiment with SF-539 was 19.8 µM (inactive); in the experiment with NCI-H226, 16.3 µM (inactive); with EKVX it was 17.5 µM (inactive); with SNB-78, 18.4 µM (inactive); with Malme-3M it was 21 µM (inactive); in the experiment on SNB-75, 15.9 µM (inactive). Further, the GI50 with A498 was 18.9 µM (inactive); in the experiment on SK-OV-3, 20.8 µM (inactive); in the experiment on SK-MEL-2, 16.6 µM (inactive); in the experiment with U-251 it was 17.7 µM (inactive); with SN12C, 14.9 µM (inactive); with HOP-18, 17.4 µM (inactive). Also, in the experiment on HT-29, the GI50 is 15.7 µM (inactive).
Take `COC(=O)C1N=CSCC1(C)O` (stereo not given): the GI50 with K562, with NCI-H23, in the experiment on HCT-116, in the experiment on A549, with SF-295 and in the experiment with KM-20L2 was > 100 µM (inactive) throughout. The GI50 in the experiment with SF-539, in the experiment on NCI-H226, in the experiment on EKVX, with SNB-78, with Malme-3M and in the experiment on SNB-75 was > 100 µM (inactive) throughout. Also, the GI50 in the experiment on A498, in the experiment on SK-OV-3, with SK-MEL-2, with SN12C, in the experiment with HOP-18 and in the experiment with HT-29 was > 100 µM (inactive) each time.
Regarding `COC(=O)[C@@]1(O)CC(C)C=C1C=O` (stereo not given in full), the GI50 is 55 µM (inactive) in the experiment on K562; > 100 µM (inactive) in the experiment with NCI-H23; 20.8 µM (inactive) in the experiment on HCT-116; 24.6 µM (inactive) with A549; > 100 µM (inactive) in the experiment with SF-295; > 100 µM (inactive) in the experiment with KM-20L2. Besides, the GI50 in the experiment with SF-539 was > 100 µM (inactive); in the experiment on NCI-H226 it was > 100 µM (inactive); in the experiment with EKVX, > 100 µM (inactive); in the experiment with SNB-78, 20.2 µM (inactive); in the experiment on Malme-3M it was > 100 µM (inactive); with SNB-75 it was > 100 µM (inactive). The GI50 with A498 was > 100 µM (inactive); with SK-OV-3, > 100 µM (inactive); in the experiment on SK-MEL-2, > 100 µM (inactive); in the experiment with U-251 it was 18.2 µM (inactive); in the experiment on SN12C it was > 100 µM (inactive); in the experiment on HOP-18 it was > 100 µM (inactive). For the same molecule, the GI50 in the experiment on HT-29 was 39.4 µM (inactive).
With `COc1ccc(/C=C/C(=O)C(C)(C)CN2CCCCC2)cc1`, the GI50 with K562 was 24.2 µM (inactive); with NCI-H23, 24.5 µM (inactive); in the experiment with HCT-116 it was 16.2 µM (inactive); in the experiment with A549, 26.8 µM (inactive); in the experiment with SF-295, 38.1 µM (inactive); in the experiment with KM-20L2 it was 20.2 µM (inactive). Besides, the GI50 in the experiment on SF-539 is 19.8 µM (inactive); in the experiment with NCI-H226, 20.9 µM (inactive); with EKVX, 44.7 µM (inactive); with SNB-78 it was 17.1 µM (inactive); in the experiment with Malme-3M, 22.2 µM (inactive); with SNB-75 it was 12.4 µM (inactive). In addition, the GI50 in the experiment with A498 was 16.9 µM (inactive); with SK-OV-3, 21.5 µM (inactive); in the experiment on SK-MEL-2, 16.3 µM (inactive); in the experiment with U-251 it was 15.4 µM (inactive); with SN12C, 18.3 µM (inactive); in the experiment on HOP-18 it was 16.9 µM (inactive). Further, in the experiment with HT-29, the GI50 was 16.6 µM (inactive).
